Ten compounds from PubChem BioAssay AID2060485 (Molecular Pharmacology Branch, DTP, NCI, 2025) can be followed below.

The viability, T/C is the result in the treated group divided by that in the control group, in per cent. One may read the IC50 as the concentration needed to halve the response being measured.

The subject of the assay is A375 multi-cell spheroids with HUVEC/MSC, viability. In words: Anticancer human tumor A375 cell line growth inhibition [GQUAD].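 On all read-outs here: spheroids exposed to compounds for seven days before readout.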 The conditions noted are these: for viability, T/C: stronger effect = lower value. An excerpt:
DNA G-quadruplex Stabilizer Agents in Combinations in Complex Spheroids
A high-throughput screen of multi-cell type tumor spheroids was designed to identify active combinations of DNA G-quadruplex stabilizer agents and targeted small molecules. Complex spheroids include a stromal component modeled by human endothelial cells (HUVEC) and fibroblasts modeled by human mesenchymal stem cells (MSCs). The concentration ranges selected for each drug and investigational agent were based upon clinically achievable concentrations if the clinical Cmax of the agent was known.
Compounds. The drugs and investigational agents: pidnarulex (CX-5461; NSC782164), APTO-253 (NSC789042), BRACO-19 (NSC847499), peposertib (NSC802822), ceralasertib (NSC780249), elimusertib (NSC800525), camonsertib (NSC841442), AZD-1390 (NSC803789), olaparib (NSC753686), talazoparib (NSC767125), ART-558 (NSC835418), sotorasib (NSC818433), MRTX-1133 (NSC836407), SN-38 (NSC673596), topotecan (NSC609699), etoposide (NSC141540), doxorubicin (NSC123127), gemcitabine (NSC613327), 5-fluorouracil (NSC19893), paclitaxel (NSC125973), vemurafenib (NSC761431), panobinostat (NSC761190), R-306465 (JNJ-16241199; NSC773264), adavosertib (NSC754352), TP-3654 (NSC805149), carboplatin (NSC241240), KSQ-4279 (NSC840948), and staurosporine (NSC755774) were obtained from the National Cancer Institute (NCI) Developmental Therapeutics Program Chemical Repository (34). The FDA-approved anticancer drug set is available from the NCI Developmental Therapeutics Program. […] The stock solutions were prepared in dimethyl sulfoxide (DMSO, Sigma-Aldrich, St. Louis, MO, cat. D2650) at 800-fold the tested concentration and stored at -70 degrees C prior to their use. All drugs and investigational agents were tested over a range starting from a high concentration at or near the clinical Cmax and decreasing in half-log increments. If the clinical Cmax for an agent had not been determined, the highest concentration tested was 10 microM.
2.3 Cell Culture. All cells were maintained in an incubator at 37 degrees C and 5% CO2 with 95% humidity. The PDC lines were cultured according to standard operating procedures established by the NCI PDMR. All PDCs were thawed and cultured in Matrigel-coated flasks prepared with a working solution of 1X Ham's F-12 nutrient mix, without supplementation (Invitrogen, cat. 11765054), 100 U/mL penicillin-streptomycin (Invitrogen, cat. 15140122), and 2.5% Matrigel (Corning Inc., cat. 354248) for the first three passages. The 857933-349-R-J2-PDC line was cultured in 6C/Colon 1B media, which includes advanced DMEM/F-12 (Thermo Fisher Scientific, cat. 12634028), 10 mM HEPES (Thermo Fisher Scientific, cat. 15630080), 1X GlutaMAX supplement (Thermo Fisher Scientific, cat. 35050061), 0.1 mg/mL primocin (InvivoGen, cat. ant-pm-2), 10% defined fetal bovine serum, heat inactivated (HyClone Laboratories Inc., cat. SH30070.03HI), 50% L-WRN conditioned media (ATCC, cat. CRL-3276), 1.25 mM N-Acetyl-L-cysteine (Sigma-Aldrich, cat. A9165), 10 mM nicotinamide (Sigma-Aldrich, cat. N0636), 1X B-27 supplement (Thermo Fisher Scientific, cat. 17504044), 1X N-2 supplement (Thermo Fisher Scientific, cat. 17502048), 10 microM Y-27632 dihydrochloride (Tocris Bioscience, cat. 1254), and 50 ng/mL human EGF recombinant protein (Thermo Fisher Scientific, cat. PHG0311). The 485176-168-R4-J1-PDC line was cultured in Panc media, which includes all 6C/Colon 1B media components plus 100 ng/mL human FGF-10 (Thermo Fisher Scientific, cat. 100-26), 500 nM SB-431542 (Selleckchem, cat. S1067), and gastrin (Tocris, cat. 3006).
[…]

Structures are written as SMILES. Values joined by “and” are separate entries in the source; they are usually repeats but may differ in a detail not shown here. Equal entries are not always repeated.

Turning to `C=CC(=O)N1CCN(c2nc(=O)n(-c3c(C)ccnc3C(C)C)c3nc(-c4c(O)cccc4F)c(F)cc23)C(C)C1` (stereo not given), the viability, T/C is, setting by setting: (compound 0.0316 µM) 94.3% and 100% and 93.8%; (compound 0.1 µM) 105% and 91.8% and 94.4%; (compound 0.316 µM) 95.2% and 94.2% and 99%; (compound 1 µM) 101% and 90.2% and 99.8%; (compound 3.16 µM) 109% and 99.3% and 126%; (compound 10 µM) 101% and 119% and 111%. Further, the IC50 (curve of compound) was > 10 µM.

As for `CC(=O)O[C@H]1C(=O)[C@@]2(C)[C@H]([C@H](OC(=O)c3ccccc3)[C@]3(O)C[C@H](OC(=O)[C@H](O)[C@@H](NC(=O)c4ccccc4)c4ccccc4)C(C)=C1C3(C)C)[C@]1(OC(C)=O)CO[C@@H]1C[C@@H]2O`, the viability, T/C reads like this: (compound 0.0316 µM) 68.9% and 90.7% and 112%; (compound 0.1 µM) 18.1% and 20.5% and 32.6%; (compound 0.316 µM) 9.64% and 11.9% and 16.6%; (compound 1 µM) 9.68% and 8.91% and 13.8%; (compound 3.16 µM) 7.88% and 12.2% and 13.3%; (compound 10 µM) 10.8% and 15.2% and 17.8%. In addition, the IC50 (curve of compound) is 0.0485 µM and 0.0616 µM and 0.0776 µM.

In the case of `CC(C)n1c(=O)n(C)c2cnc3cc(F)c(-c4ccc(OCCCN5CCCCC5)nc4)cc3c21`, the viability, T/C is, setting by setting: (compound 0.0316 µM) 103% and 99.6% and 97.1%; (compound 0.1 µM) 92.8% and 105% and 111%; (compound 0.316 µM) 96.4% and 103% and 99.7%; (compound 1 µM) 97.4% and 108% and 98.7%; (compound 3.16 µM) 102% and 114% and 109%; (compound 10 µM) 94.5% and 85.4% and 97.5%. Moreover, the 50% inhibitory concentration (IC50) (curve of compound) is > 10 µM.

For `CC1COCCN1c1cc(-c2ccnn2C)c2ccnc(-c3ccn[nH]3)c2n1` (stereo not given), the viability, T/C runs as follows: (compound 0.0316 µM) 106% and 103% and 105%; (compound 0.1 µM) 87.6% and 77% and 93.2%; (compound 0.316 µM) 75.4% and 49.7% and 69.2%; (compound 1 µM) 38.9% and 25% and 31.8%; (compound 3.16 µM) 13.2% and 9.89% and 11.6%; (compound 10 µM) 11.8% and 10.5% and 11.2%. For the same compound, under “curve of compound”, the IC50 is 0.677 µM and 0.294 µM and 0.561 µM.

Regarding `CC1COCCN1c1cc(C2(O)CC3CCC(C2)O3)c2cnn(-c3ccn[nH]3)c2n1` (stereo not given), the viability, T/C (compound 0.0316 µM) was 117% and 107% and 101%; the viability, T/C (compound 0.1 µM) is 73.7% and 86.2% and 65.1%; the viability, T/C (compound 0.316 µM) was 47.9% and 53.4% and 35.1%; the viability, T/C (compound 1 µM) is 19.1% and 20.1% and 14.9%; the viability, T/C (compound 3.16 µM) is 12.1% and 10.6% and 9.5%; the viability, T/C (compound 10 µM) is 8.52% and 8.96% and 7.33%. For the same compound, the IC50 (curve of compound) is 0.25 µM and 0.334 µM and 0.176 µM.

As to `CC1COCCN1c1cc(C2(S(C)(=N)=O)CC2)nc(-c2ccnc3[nH]ccc23)n1` (stereo not given), the viability, T/C runs as follows: (compound 0.0316 µM) 103% and 102%; (compound 0.1 µM) 97.6% and 102%; (compound 0.316 µM) 104% and 98.5%; (compound 1 µM) 109% and 103%; (compound 3.16 µM) 54.7% and 63.4%; (compound 10 µM) 42.4% and 36.1%. Further, under “curve of compound”, the IC50 was 4.9 µM and 5.56 µM.

For the compound `CC[C@@]1(O)C(=O)OCc2c1cc1n(c2=O)Cc2cc3c(CN(C)C)c(O)ccc3nc2-1`, the viability, T/C reads like this: (compound 0.000999 µM) 104% and 102% and 101%; (compound 0.00316 µM) 105% (2×) and 93.9%; (compound 0.00999 µM) 108% and 96.2% and 102%; (compound 0.0316 µM) 80.7% and 57% and 63%; (compound 0.0999 µM) 24.7% and 19.6% and 22%; (compound 0.316 µM) 14.6% and 9.66% and 10.5%. Further, the IC50 (curve of compound) was 0.0593 µM and 0.0395 µM and 0.0458 µM.

As to `CCc1c2c(nc3ccc(O)cc13)-c1cc3c(c(=O)n1C2)COC(=O)[C@]3(O)CC`, the viability, T/C is 45.1% and 41.4% and 38.3% (compound 0.000999 µM); 17.9% and 15.3% and 17.3% (compound 0.00316 µM); 15.6% and 10.1% and 12.2% (compound 0.00999 µM); 18% and 14.4% and 15% (compound 0.0316 µM); 4.97% and 4.55% and 5.97% (compound 0.0999 µM); 0.56% and 1.25% and 0.77% (compound 0.316 µM). For the same compound, the IC50 (curve of compound) is < 0.000999 µM.

Regarding `CN(C)c1ccc(Nc2c3ccc(NC(=O)CCN4CCCC4)cc3nc3cc(NC(=O)CCN4CCCC4)ccc23)cc1`, the viability, T/C is 98.8% [middle of 12 runs] (compound 0.0316 µM); 103% [middle of 12 runs] (compound 0.1 µM); 104% [middle of 12 runs] (compound 0.316 µM); 101% [middle of 12 runs] (compound 1 µM); 106% [middle of 12 runs] (compound 3.16 µM); 102% [middle of 12 runs] (compound 10 µM). The IC50 (compound alone, run of 03/26/2024) is > 10 µM.

Take `COc1cc(C2c3cc4c(cc3C(OC3OC5COC(C)OC5C(O)C3O)C3COC(=O)C23)OCO4)cc(OC)c1O` (stereo not given): the viability, T/C is, setting by setting: (compound 0.0316 µM) 93.3% and 94.2% and 109%; (compound 0.1 µM) 105% (2×) and 118%; (compound 0.316 µM) 93.9% and 92.3% and 76.3%; (compound 1 µM) 65.6% and 63.6% and 58.4%; (compound 3.16 µM) 34% and 34.8% and 33.6%; (compound 10 µM) 24.1% and 21.5% and 21.2%. Further, the IC50 (curve of compound) is 1.75 µM and 1.69 µM and 1.37 µM.
